From PMC5354814, “In silico and in vitro drug screening identifies new therapeutic approaches for Ewing sarcoma” (Oncotarget, 2016)
Like-named read-outs stand apart in the source and are kept apart here.

Key:
Assay type in all cases: cell-based
CHLA-258 = test: Hits validation, dose-response cell proliferation (CellTiter-Glo)
Protocol: (§1) For hits validation and combination study, cells were harvested and aliquoted into 384-well plates at concentrations of 750–1,500 cells per well in a total of 20 μl/well using a Matrix Wellmate (Thermo Scientific). Five μl of culture media containing either vehicles or drug were added to each well the next day (drug concentrations range from 1 nmol/L to 50 μmol/L). For combination study, selected drugs were archived in robotically accessible plates, to which media was added in preparation for addition to master plates by a Nimbus 96 liquid-dispensing workstation (Hamilton). Liquid transfers to dilution and assay plates were handled using the same workstation. Each 384-well master plate contained four 9 by 9 dose-matrix blocks, with eight serial two-fold dilutions (concentrations range from 7.8 nmol/L to 1 μmol/L). Additional wells were reserved for untreated, and vehicle-treated control wells. Cell proliferation was evaluated using Cell-Titer Glo® reagents (Promega). IC50 values were determined for each drug using SigmaPlot (Systat Software). The combination index values were calculated using SigmaPlot (Systat Software) and CompuSyn.

SK-ES-1 [1] = test: as above; details: 12-point dose-response 50 μmol/L to 1 nmol/L, mean ± SD
Protocol: as §1

TC-71 = test: as above
Protocol: as §1

Hs 822.T. = test: as above
Protocol: as §1

A673 [2] = test: as above
Protocol: as §1

RD-ES [3] = test: as above
Protocol: as §1

Hs 863.T. = test: as above
Protocol: as §1

COG-E-352 = test: as above
Protocol: as §1

Hs 919.T. [4] = test: as above
Protocol: These drugs were chosen based on their known mechanisms and safety profiles. We also tested the synergy between these drug hits (Supplementary Figures S6–S11). […] We evaluated the anti-proliferation effect in combination treatments using the EWS and control cell lines.
as §1

SK-ES-1 [5] = test: In vitro high-throughput screen of FDA-approved drug library (CellTiter-Glo); details: Homo sapiens, SK-ES1; 1 μmol/L drug, 72 hours; read-out: % Inhibition SK-ES-1
Protocol: (§2) We screened, in parallel to the three computational approaches, an FDA-approved drug library containing 2,316 drugs (1,536 unique chemical entities). […] The drug screening study protocol employed is summarized in Supplementary Table S1.
(§3) Cells were grown to 80–90% confluence, harvested and aliquoted into 384-well plates (black μClear microplates, Greiner bio-one, Germany) at concentrations of 750–1,500 cells per well in a total volume of 25 μl/well using a Matrix Wellmate (Thermo Scientific). Cells were cultured for 72 hours in a 5% CO2 atmosphere at 37°C. Aliquots of 25 μl CellTiter-Glo® Reagent (Promega) were added directly to each well, the plates were incubated at room temperature for 20 min and the luminescence signal was measured according to the manufacturer's protocol. The measurements were made using Infinite® M200 Pro plate reader (Tecan, Switzerland). […] Data were normalized to percentage inhibition. […]
(§4) (A) Color scale for drug inhibition values. […]

Hs 919.T. [6] = test: as above; details: 1 μmol/L drug, 72 hours, control cell line; read-out: % Inhibition Hs 919.T.
Protocol: as §2, §3, §4

A673 [7] = test: as above; details: Homo sapiens, A673; 1 μmol/L drug, 72 hours; read-out: % Inhibition A673
Protocol: as §2, §3, §4

RD-ES [8] = test: as above; details: RD-ES; 1 μmol/L drug, 72 hours; read-out: % Inhibition RD-ES
Protocol: as §2, §3, §4

[9] = 12-point dose-response 50 μmol/L to 1 nmol/L, mean ± SD
[10] = TC-71, 12-point dose-response 50 μmol/L to 1 nmol/L, mean ± SD
[11] = control cell line, 12-point dose-response, mean ± SD
[12] = Homo sapiens, A673, 12-point dose-response 50 μmol/L to 1 nmol/L, mean ± SD
[13] = RD-ES, 12-point dose-response 50 μmol/L to 1 nmol/L, mean ± SD

| Compound | IC50 (SK-ES-1 [1]; Homo sapiens, SK-ES1) [µM] | IC50 (CHLA-258; [9]) [µM] | IC50 (TC-71; [10]) [µM] | IC50 (Hs 822.T.; [11]) [µM] | IC50 (A673 [2]; [12]) [µM] | IC50 (RD-ES [3]; [13]) [µM] | IC50 (Hs 863.T.; [11]) [µM] | IC50 (COG-E-352; [9]) [µM] | IC50 (Hs 919.T. [4]; [11]) [µM] | inhibition at 1 µM (SK-ES-1 [5]) [%] | inhibition at 1 µM (Hs 919.T. [6]) [%] | inhibition at 1 µM (A673 [7]) [%] | inhibition at 1 µM (RD-ES [8]) [%] | other results |
| --- | --- | --- | --- | --- | --- | --- | --- | --- | --- | --- | --- | --- | --- | --- |
| OCCN1CCN(CCCN2c3ccccc3Sc3ccc(C(F)(F)F)cc32)CC1 [Fluphenzaine] | – | 19 ± 6.79 | – | 22.7 ± 7.23 | – | – | 20.5 ± 2.88 | 16.1 ± 7.51 | 15.5 ± 3.68 | – | – | – | – | IC50 (SK-ES-1 [1]): 16.3 ± 3.66 µM; IC50 (TC-71; [9]): 17 ± 6.68 µM; IC50 (A673 [2]; [9]): 10.5 ± 2.89 µM; IC50 (RD-ES [3]; [9]): 14.3 ± 3.21 µM |
| (R)-Apomorphine | – | – | – | – | – | – | – | – | – | – | – | – | – | IC50 (CHLA-258): 14.7 ± 6.86 µM; IC50 (TC-71): 17.3 ± 2.21 µM; IC50 (Hs 822.T.): 14.3 ± 1.47 µM; IC50 (A673 [2]): 8.52 ± 2.14 µM; IC50 (RD-ES [3]): 7.85 ± 1.69 µM; IC50 (Hs 863.T.): 15.2 ± 2.19 µM; IC50 (COG-E-352): 4.01 ± 1.55 µM; IC50 (Hs 919.T. [4]): 16.7 ± 3.02 µM |
| COc1c(C)c2c(c(O)c1C/C=C(\C)CCC(=O)O)C(=O)OC2 [Mycophenolic Acid] | – | – | – | – | – | – | – | – | – | < 50 | < 50 | < 50 | 52 | – |
| Nc1nc(=S)c2ncn([C@@H]3O[C@H](CO)[C@@H](O)[C@H]3O)c2[nH]1 [Thioguanosine] | – | – | – | – | – | – | – | – | – | 64 | < 50 | 73 | < 50 | – |
| C[C@@H]1C[C@@H]([C@H](O)CC2CC(=O)NC(=O)C2)C(=O)[C@@H](C)C1 [Cycloheximide] | – | – | – | – | – | – | – | – | – | 81 | < 50 | 77 | 74 | – |
| COc1cc([C@@H]2c3cc4c(cc3[C@@H](O[C@@H]3O[C@@H]5CO[C@@H](C)O[C@H]5[C@H](O)[C@H]3O)[C@H]3COC(=O)[C@H]23)OCO4)cc(OC)c1O [Etoposide] | – | – | – | – | – | – | – | – | – | 84 | < 50 | < 50 | 84 | – |
| O=c1[nH]c(=O)n([C@H]2C[C@H](O)[C@@H](CO)O2)cc1F [Floxuridine] | – | – | – | – | – | – | – | – | – | 56 | < 50 | 68 | 92 | – |

Second part, led by results:

| IC50 (SK-ES-1 [1]; Homo sapiens, SK-ES1) [µM] | Compound | IC50 (CHLA-258; [9]) [µM] | IC50 (TC-71; [10]) [µM] | IC50 (Hs 822.T.; [11]) [µM] | IC50 (A673 [2]; [12]) [µM] | IC50 (RD-ES [3]; [13]) [µM] | IC50 (Hs 863.T.; [11]) [µM] | IC50 (COG-E-352; [9]) [µM] | IC50 (Hs 919.T. [4]; [11]) [µM] | inhibition at 1 µM (SK-ES-1 [5]) [%] | inhibition at 1 µM (Hs 919.T. [6]) [%] | inhibition at 1 µM (A673 [7]) [%] | inhibition at 1 µM (RD-ES [8]) [%] | other results |
| --- | --- | --- | --- | --- | --- | --- | --- | --- | --- | --- | --- | --- | --- | --- |
| 20.4 ± 5.87 | COc1cc2nc(N3CCN(C(=O)C4COc5ccccc5O4)CC3)nc(N)c2cc1OC (stereo not shown) [Doxazosin] | 16.1 ± 6.78 | 22.5 ± 9.35 | 15.7 ± 2.12 | 5.6 ± 1.52 | > 25 | 14.6 ± 3.02 | 17.1 ± 6.58 | 18.5 ± 3.27 | – | – | – | – | – |
| > 25 | CN(C)CCCN1c2ccccc2Sc2ccc(Cl)cc21 [Chlorpromazine] | 15.3 ± 4.55 | 17.6 ± 8.63 | 16.8 ± 3.22 | 10.6 ± 2.15 | > 25 | 18.4 ± 3.07 | 16.1 ± 2.29 | 15.5 ± 2.09 | – | – | – | – | – |
| 16.7 ± 3.14 | CN1CCN(CCCN2c3ccccc3Sc3ccc(C(F)(F)F)cc32)CC1 [Trifluoperazine] | 13.6 ± 4.8 | 16.4 ± 3.46 | 10.6 ± 2.45 | 15.6 ± 3.55 | 18.2 ± 2.54 | 9.84 ± 2.28 | 12.1 ± 1.58 | 16.8 ± 4.2 | – | – | – | – | – |
| 12.5 ± 2.36 | O=C(Nc1ccc([N+](=O)[O-])cc1Cl)c1cc(Cl)ccc1O [Niclosamide] | 0.7 ± 0.14 | 0.79 ± 0.47 | 15.2 ± 3.51 | 7.02 ± 1.23 | 8.54 ± 1.55 | 10.5 ± 2.66 | 0.42 ± 0.07 | 10.6 ± 2.84 | – | – | – | – | – |
| > 50 | O=C(O)CCC(=O)c1ccc(-c2ccccc2)cc1 [Fenbufen] | > 50 | > 50 | > 50 | > 50 | > 50 | > 50 | > 50 | > 50 | – | – | – | – | – |
| > 50 | CC1=C(/C=C/C(C)=C/C=C/C(C)=C/C(=O)O)C(C)(C)CCC1 [Tretinoin] | 4.95 ± 3.82 | > 50 | > 50 | > 50 | > 50 | > 50 | 35.5 ± 6.28 | > 50 | – | – | – | – | – |
| 0.35 ± 0.1 | COc1ccc(C[C@H](N)C(=O)N[C@H]2[C@@H](O)[C@H](n3cnc4c(N(C)C)ncnc43)O[C@@H]2CO)cc1 [Puromycin] | 0.06 ± 0.02 | 0.08 ± 0.05 | 0.55 ± 0.13 | 0.25 ± 0.01 | 0.35 ± 0.03 | 1.02 ± 0.26 | 0.05 ± 0.01 | 0.89 ± 0.03 | – | – | – | – | – |
